In PubChem BioAssay AID256 (DTP/NCI, 2004):
Several values for one entry are separate records, joined by “and”; a condition that tells them apart may be missing. Equal values may be shown once. Toxic doses and inconclusive results are not listed. The calls were made as follows: active = survival T/C of 150% or more; inactive = T/C below 125% in these data.

Tested on: CD2F1 mice, L1210 leukemia ip, survival T/C
Experiment: NCI In Vivo Anticancer Drug Screen. Data for tumor model L1210 Leukemia (intraperitoneal) in CD2F1 (CDF1) mice
Details: higher = longer survival
In short: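 Compound-dosed mice with transplantable tumor versus matched vehicle controls; endpoint ratio T/C reported.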

[1] = endpoint: mean survival time, dose: 50.0 mg/kg/injection, schedule: Q01DX009 (ip), vehicle: saline with Tween-80
[2] = endpoint: mean survival time, dose: 100.0 mg/kg/injection, schedule: Q01DX009 (ip), vehicle: saline with Tween-80
[3] = endpoint: mean survival time, dose: 200.0 mg/kg/injection, schedule: Q01DX009 (ip), vehicle: saline with Tween-80
[4] = endpoint: mean survival time, dose: 100.0 mg/kg/injection, schedule: Q04DX003 (ip), vehicle: saline with Tween-80
[5] = endpoint: mean survival time, dose: 200.0 mg/kg/injection, schedule: Q04DX003 (ip), vehicle: saline with Tween-80
[6] = endpoint: mean survival time, dose: 400.0 mg/kg/injection, schedule: Q04DX003 (ip), vehicle: saline with Tween-80
[7] = endpoint: mean survival time, dose: 100.0 mg/kg/injection, schedule: Q04DX002 (ip), vehicle: saline with Tween-80
[8] = endpoint: mean survival time, dose: 400.0 mg/kg/injection, schedule: Q04DX002 (ip), vehicle: saline with Tween-80

Measured: T/C

Nc1ccn(C2OC(CO)C3[O][Sn]([c]4ccccc4)([c]4ccccc4)[O]C32)c(=O)n1 (stereo not drawn)
inactive: endpoint: mean survival time, dose: 1.56 mg/kg/injection, schedule: Q01DX005 (ip), vehicle: other 100 % of control | endpoint: mean survival time, dose: 3.13 mg/kg/injection, schedule: Q01DX005 (ip), vehicle: other 94 % of control | endpoint: mean survival time, dose: 6.25 mg/kg/injection, schedule: Q01DX005 (ip), vehicle: other 100 % of control | endpoint: mean survival time, dose: 12.5 mg/kg/injection, schedule: Q01DX005 (ip), vehicle: other 94 % of control and 104 % of control

[Cl][Pt]([Cl])([Cl])[Cl]
inactive: endpoint: mean survival time, dose: 3.13 mg/kg/injection, schedule: Q01DX009 (ip), vehicle: saline 100 % of control | endpoint: mean survival time, dose: 3.13 mg/kg/injection, schedule: Q01DX009 (ip), vehicle: suspension in saline 101 % of control | endpoint: mean survival time, dose: 6.25 mg/kg/injection, schedule: Q01DX009 (ip), vehicle: saline 113 % of control | endpoint: mean survival time, dose: 6.25 mg/kg/injection, schedule: Q01DX009 (ip), vehicle: suspension in saline 107 % of control | endpoint: mean survival time, dose: 12.5 mg/kg/injection, schedule: Q01DX009 (ip), vehicle: saline 121 % of control | endpoint: mean survival time, dose: 12.5 mg/kg/injection, schedule: Q01DX009 (ip), vehicle: suspension in saline 121 % of control | endpoint: mean survival time, dose: 25.0 mg/kg/injection, schedule: Q01DX009 (ip), vehicle: saline 113 % of control and 102 % of control | endpoint: mean survival time, dose: 25.0 mg/kg/injection, schedule: Q01DX009 (ip), vehicle: suspension in saline 124 % of control | endpoint: mean survival time, dose: 25.0 mg/kg/injection, schedule: Q04DX003 (ip), vehicle: saline 108 % of control and 107 % of control | endpoint: mean survival time, dose: 50.0 mg/kg/injection, schedule: Q04DX003 (ip), vehicle: saline 97 % of control and 105 % of control

CCN(CC)C(=O)[S-].CCN(CC)C(=O)[S-].[Ni+2]
inactive: endpoint: mean survival time, dose: 100.0 mg/kg/injection, schedule: Q01DX001 (ip), vehicle: saline with Tween-80 94 % of control | endpoint: mean survival time, dose: 200.0 mg/kg/injection, schedule: Q01DX001 (ip), vehicle: saline with Tween-80 98 % of control | endpoint: mean survival time, dose: 400.0 mg/kg/injection, schedule: Q01DX001 (ip), vehicle: saline with Tween-80 102 % of control

CCCC/C=C\C(=O)OCC
inactive: [1] 104 % of control | [2] 101 % of control | [3] 104 % of control

CCC(=O)c1cc2c(c3c1CCCC3)CCCC2
inactive: endpoint: mean survival time, dose: 25.0 mg/kg/injection, schedule: Q01DX009 (ip), vehicle: other 104 % of control | endpoint: mean survival time, dose: 50.0 mg/kg/injection, schedule: Q01DX009 (ip), vehicle: other 98 % of control | endpoint: mean survival time, dose: 100.0 mg/kg/injection, schedule: Q01DX009 (ip), vehicle: other 104 % of control

CC(C(=O)O)N(C)N=O (stereo not drawn)
inactive: endpoint: mean survival time, dose: 50.0 mg/kg/injection, schedule: Q01DX009 (ip), vehicle: Klucel (hydroxypropylcellulose) (HPC) 104 % of control | endpoint: mean survival time, dose: 100.0 mg/kg/injection, schedule: Q01DX009 (ip), vehicle: Klucel (hydroxypropylcellulose) (HPC) 93 % of control | endpoint: mean survival time, dose: 200.0 mg/kg/injection, schedule: Q01DX009 (ip), vehicle: Klucel (hydroxypropylcellulose) (HPC) 86 % of control

CCCCCC(=O)C(C)CC (stereo not drawn)
inactive: [4] 96 % of control | [5] 104 % of control | [6] 94 % of control

N#C/C(=C/C=C/c1ccccc1)c1ccc([N+](=O)[O-])cc1
inactive: endpoint: mean survival time, dose: 100.0 mg/kg/injection, schedule: Q04DX002 (ip), vehicle: other 111 % of control | endpoint: mean survival time, dose: 200.0 mg/kg/injection, schedule: Q04DX002 (ip), vehicle: other 100 % of control | endpoint: mean survival time, dose: 400.0 mg/kg/injection, schedule: Q04DX002 (ip), vehicle: other 96 % of control

[I][Pt][I].c1ccc([PH+](c2ccccc2)c2ccccc2)cc1.c1ccc([PH+](c2ccccc2)c2ccccc2)cc1
inactive: endpoint: mean survival time, dose: 6.25 mg/kg/injection, schedule: Q04DX002 (ip), vehicle: saline with Tween-80 104 % of control | endpoint: mean survival time, dose: 12.5 mg/kg/injection, schedule: Q04DX002 (ip), vehicle: saline with Tween-80 93 % of control | endpoint: mean survival time, dose: 25.0 mg/kg/injection, schedule: Q04DX002 (ip), vehicle: saline with Tween-80 96 % of control | [7] 87 % of control | [8] 91 % of control

CC(=O)NC1CCCCC1
inactive: [2] 104 % of control | [3] 102 % of control

CCOC(=O)CCC1(CCC(=O)OCC)c2ccccc2-c2ccccc21
inactive: endpoint: mean survival time, dose: 100.0 mg/kg/injection, schedule: Q01DX001 (ip), vehicle: Klucel (hydroxypropylcellulose) (HPC) 96 % of control | endpoint: mean survival time, dose: 200.0 mg/kg/injection, schedule: Q01DX001 (ip), vehicle: Klucel (hydroxypropylcellulose) (HPC) 104 % of control | endpoint: mean survival time, dose: 400.0 mg/kg/injection, schedule: Q01DX001 (ip), vehicle: Klucel (hydroxypropylcellulose) (HPC) 104 % of control

C[CH2][Sn](/[CH]=C/C=C/OC)([CH2]C)[CH2]C
inactive: endpoint: mean survival time, dose: 0.04 mg/kg/injection, schedule: Q01DX009 (ip), vehicle: saline 101 % of control | endpoint: mean survival time, dose: 0.09 mg/kg/injection, schedule: Q01DX009 (ip), vehicle: saline 101 % of control

C[N+]12CCN(CC1)CC2
inactive: endpoint: mean survival time, dose: 100.0 mg/kg/injection, schedule: Q04DX003 (ip), vehicle: saline 102 % of control | endpoint: mean survival time, dose: 200.0 mg/kg/injection, schedule: Q04DX003 (ip), vehicle: saline 104 % of control | endpoint: mean survival time, dose: 400.0 mg/kg/injection, schedule: Q04DX003 (ip), vehicle: saline 104 % of control

CCOC(=O)c1ccc(NC(=O)Oc2ccc(NC(C)=O)cc2)cc1
inactive: [2] 95 % of control and 102 % of control | [7] 91 % of control and 94 % of control | [4] 89 % of control | [3] 96 % of control and 100 % of control | endpoint: mean survival time, dose: 200.0 mg/kg/injection, schedule: Q04DX002 (ip), vehicle: saline with Tween-80 94 % of control and 105 % of control | [5] 86 % of control | endpoint: mean survival time, dose: 400.0 mg/kg/injection, schedule: Q01DX009 (ip), vehicle: saline with Tween-80 92 % of control and 96 % of control | [8] 92 % of control | [6] 86 % of control

CN(Cc1cnc2nc(N)nc(N)c2n1)c1ccc(C(=O)NC(CCC(=O)O)C(=O)NCC(=O)O)cc1 (stereo not drawn)
inactive: endpoint: mean survival time, dose: 1.0 mg/kg/injection, schedule: Q01DX009 (ip), vehicle: sodium bicarbonate 103 % of control | endpoint: mean survival time, dose: 2.0 mg/kg/injection, schedule: Q01DX009 (ip), vehicle: sodium bicarbonate 109 % of control | endpoint: mean survival time, dose: 5.0 mg/kg/injection, schedule: Q01DX009 (ip), vehicle: sodium bicarbonate 102 % of control | endpoint: mean survival time, dose: 10.0 mg/kg/injection, schedule: Q01DX009 (ip), vehicle: sodium bicarbonate 108 % of control

O=c1[nH]cc(N=Cc2ccccc2Cl)c(=O)[nH]1.[Cl][Pt][Cl]
inactive: endpoint: mean survival time, dose: 3.13 mg/kg/injection, schedule: Q04DX003 (ip), vehicle: distilled water + Tween-80 94 % of control | endpoint: mean survival time, dose: 6.25 mg/kg/injection, schedule: Q04DX003 (ip), vehicle: distilled water + Tween-80 97 % of control | endpoint: mean survival time, dose: 12.5 mg/kg/injection, schedule: Q04DX003 (ip), vehicle: distilled water + Tween-80 88 % of control | endpoint: mean survival time, dose: 25.0 mg/kg/injection, schedule: Q04DX003 (ip), vehicle: distilled water + Tween-80 96 % of control | endpoint: mean survival time, dose: 50.0 mg/kg/injection, schedule: Q04DX003 (ip), vehicle: distilled water + Tween-80 96 % of control | endpoint: mean survival time, dose: 100.0 mg/kg/injection, schedule: Q04DX003 (ip), vehicle: distilled water + Tween-80 103 % of control | endpoint: mean survival time, dose: 200.0 mg/kg/injection, schedule: Q04DX003 (ip), vehicle: distilled water + Tween-80 94 % of control

CC1=C(/C=C/C(=O)CC(O)(C(F)(F)F)C(F)(F)F)C(C)(C)CCC1
inactive: [4] 104 % of control | [5] 98 % of control | [6] 101 % of control

CCOC(=O)c1cc([N+](=O)[O-])c[nH]1
inactive: endpoint: median survival time, dose: 25.0 mg/kg/injection, schedule: Q01DX009 (ip), vehicle: Klucel (hydroxypropylcellulose) (HPC) 101 % of control | endpoint: median survival time, dose: 50.0 mg/kg/injection, schedule: Q01DX009 (ip), vehicle: Klucel (hydroxypropylcellulose) (HPC) 98 % of control | endpoint: median survival time, dose: 100.0 mg/kg/injection, schedule: Q01DX009 (ip), vehicle: Klucel (hydroxypropylcellulose) (HPC) 97 % of control | endpoint: median survival time, dose: 200.0 mg/kg/injection, schedule: Q01DX009 (ip), vehicle: Klucel (hydroxypropylcellulose) (HPC) 98 % of control

O=C1c2cccc(O)c2C(=O)c2c(O)cccc21
inactive: endpoint: mean survival time, dose: 100.0 mg/kg/injection, schedule: Q01DX001 (ip), vehicle: saline 100 % of control | endpoint: mean survival time, dose: 200.0 mg/kg/injection, schedule: Q01DX001 (ip), vehicle: saline 102 % of control | endpoint: mean survival time, dose: 400.0 mg/kg/injection, schedule: Q01DX001 (ip), vehicle: saline 100 % of control

CCCCC#CC(=O)CCCCC
inactive: [1] 97 % of control | [2] 102 % of control

CCCCN(C)N=Nc1ccc(C(N)=O)cc1
inactive: endpoint: mean survival time, dose: 18.75 mg/kg/injection, schedule: Q01DX009 (ip), vehicle: Klucel (hydroxypropylcellulose) (HPC) 107 % of control | endpoint: mean survival time, dose: 37.5 mg/kg/injection, schedule: Q01DX009 (ip), vehicle: Klucel (hydroxypropylcellulose) (HPC) 113 % of control | endpoint: mean survival time, dose: 75.0 mg/kg/injection, schedule: Q01DX009 (ip), vehicle: Klucel (hydroxypropylcellulose) (HPC) 121 % of control | endpoint: mean survival time, dose: 150.0 mg/kg/injection, schedule: Q01DX009 (ip), vehicle: Klucel (hydroxypropylcellulose) (HPC) 106 % of control
